In ChEMBL document CHEMBL1121869, “Potential inhibitors of L-asparagine biosynthesis. 5. Electrophilic amide analogues of (S)-2,3-diaminopropionic acid” (J Med Chem, 1981):

Columns and labels:
TsH1 [1] = assay: Compound was evaluated for the growth inhibition of TsH1 cells in an enriched eagles minimal essential medium, medium lacking aspartic acid at a concentration of 1.0 mg/mL (4.65 mM); Medium growth; type: functional, cell-based; conditions: Cricetulus griseus
TsH1 [2] = assay: Compound was evaluated for the growth inhibition of TsH1 cells in an enriched eagles minimal essential medium, complete medium at a concentration of 0.2 mg/mL (0.93 mM); Heavy growth; type: functional, cell-based; conditions: Cricetulus griseus
TsH1 [3] = assay: Compound was evaluated for the growth inhibition of TsH1 cells in an enriched eagles minimal essential medium, complete medium at a concentration of 1.0 mg/mL (4.65 mM); Medium growth; type: functional, cell-based; conditions: Cricetulus griseus
TsH1 [4] = assay: Compound was evaluated for the growth inhibition of TsH1 cells in an enriched eagles minimal essential medium, medium lacking asparagine at a concentration of 0.01 mg/mL (0.04 mM); Heavy growth; type: functional, cell-based; conditions: Cricetulus griseus
TsH1 [5] = assay: (§1) Compound was evaluated for the growth inhibition of TsH1 cells in an enriched eagles minimal essential medium, medium lacking asparagine at a concentration of 0.04 mg/mL (0.19 mM); Heavy growth; type: functional, cell-based; conditions: Cricetulus griseus
TsH1 [6] = assay: Compound was evaluated for the growth inhibition of TsH1 cells in an enriched eagles minimal essential medium, medium lacking aspartic acid and asparagine at a concentration of 0.2 mg/mL (0.93 mM); Cells dead; type: functional, cell-based; conditions: Cricetulus griseus
TsH1 [7] = assay: Compound was evaluated for the growth inhibition of TsH1 cells in an enriched eagles minimal essential medium, medium lacking aspartic acid and asparagine at a concentration of 0.01 mg/mL (0.04 mM); Heavy growth; type: functional, cell-based; conditions: Cricetulus griseus
TsH1 [8] = assay: Compound was evaluated for the growth inhibition of TsH1 cells in an enriched eagles minimal essential medium, medium lacking asparagine at a concentration of 0.2 mg/mL (0.93 mM); Cells dead; type: functional, cell-based; conditions: Cricetulus griseus
TsH1 [9] = assay: Compound was evaluated for the growth inhibition of TsH1 cells in an enriched eagles minimal essential medium, complete medium at a concentration of 0.04 mg/mL (0.19 mM); Heavy growth; type: functional, cell-based; conditions: Cricetulus griseus
TsH1 [10] = assay: as §1; type: functional, cell-based; conditions: Cricetulus griseus; remark: listed apart in the source
TsH1 [11] = assay: Compound was evaluated for the growth inhibition of TsH1 cells in an enriched eagles minimal essential medium, medium lacking asparagine at a concentration of 1.0 mg/mL (4.65 mM); Cells dead; type: functional, cell-based; conditions: Cricetulus griseus
TsH1 [12] = assay: Compound was evaluated for the growth inhibition of TsH1 cells in an enriched eagles minimal essential medium, medium lacking aspartic acid and asparagine at a concentration of 1.0 mg/mL (4.65 mM); Cells dead; type: functional, cell-based; conditions: Cricetulus griseus
TsH1 [13] = assay: Compound was evaluated for the growth inhibition of TsH1 cells in an enriched eagles minimal essential medium, medium lacking aspartic acid at a concentration of 0.2 mg/mL (0.93 mM); Heavy growth; type: functional, cell-based; conditions: Cricetulus griseus
TsH1 [14] = assay: Compound was evaluated for the growth inhibition of TsH1 cells in an enriched eagles minimal essential medium, complete medium at a concentration of 0.01 mg/mL (0.04 mM); Heavy growth; type: functional, cell-based; conditions: Cricetulus griseus
[15] = molecular target: T1, Asparagine synthetase [glutamine-hydrolyzing] (Rattus norvegicus) (UniProt P49088); assay: Inhibition of asparagine synthetase from partially purified rat Novikoff hepatoma at a final concentration of 1 mM with
T1 sequence (whole entry): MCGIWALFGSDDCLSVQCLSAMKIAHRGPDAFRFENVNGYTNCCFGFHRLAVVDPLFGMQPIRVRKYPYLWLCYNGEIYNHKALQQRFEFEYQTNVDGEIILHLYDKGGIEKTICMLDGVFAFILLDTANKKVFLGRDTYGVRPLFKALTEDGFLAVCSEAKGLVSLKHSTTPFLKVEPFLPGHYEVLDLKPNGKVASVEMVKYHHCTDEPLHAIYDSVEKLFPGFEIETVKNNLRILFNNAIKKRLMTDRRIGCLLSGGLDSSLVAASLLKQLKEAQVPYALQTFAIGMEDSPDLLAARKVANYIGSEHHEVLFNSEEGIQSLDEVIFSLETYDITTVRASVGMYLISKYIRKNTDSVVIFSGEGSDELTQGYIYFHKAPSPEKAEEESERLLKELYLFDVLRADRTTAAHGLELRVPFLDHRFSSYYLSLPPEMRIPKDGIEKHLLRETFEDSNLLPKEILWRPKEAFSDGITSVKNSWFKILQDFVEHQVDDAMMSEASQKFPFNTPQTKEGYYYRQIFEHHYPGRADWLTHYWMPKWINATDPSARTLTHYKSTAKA

TsH1 [16] = assay: Compound was evaluated for the growth inhibition of TsH1 cells in an enriched eagles minimal essential medium, medium lacking aspartic acid at a concentration of 0.01 mg/mL (0.04 mM); Heavy growth; type: functional, cell-based; conditions: Cricetulus griseus
TsH1 [17] = assay: Compound was evaluated for the growth inhibition of TsH1 cells in an enriched eagles minimal essential medium, medium lacking aspartic acid and asparagine at a concentration of 0.04 mg/mL (0.19 mM); Heavy growth; type: functional, cell-based; conditions: Cricetulus griseus
[18] = molecular target: T1, Asparagine synthetase [glutamine-hydrolyzing] (Rattus norvegicus); assay: Inhibition of asparagine synthetase from partially purified rat Novikoff hepatoma at a final concentration of 2 mM

With NC(CNC(=O)C(Cl)Cl)C(=O)O (stereo not drawn) the Growth inhibition (TsH1 [1]) was “Medium Growth”, the Growth inhibition (TsH1 [2]) was “Heavy Growth” and the Growth inhibition (TsH1 [3]) was “Medium Growth”. The Growth inhibition (TsH1 [4]) was “Heavy Growth”, the Growth inhibition (TsH1 [5]) was “Heavy Growth” and the Growth inhibition (TsH1 [6]) was “Not toxic”. The Growth inhibition (TsH1 [7]) was “Heavy Growth”, the Growth inhibition (TsH1 [8]) was “Not toxic” and the Growth inhibition (TsH1 [9]) was “Heavy Growth”. For the same compound, the Growth inhibition (TsH1 [10]) was “Heavy Growth”, the Growth inhibition (TsH1 [11]) was “Not toxic” and the Growth inhibition (TsH1 [12]) was “Not toxic”. For the same compound, the Growth inhibition (TsH1 [13]) was “Heavy Growth”, the Growth inhibition (TsH1 [14]) was “Heavy Growth” and the inhibition [15] was 18.7%. For the same compound, the Growth inhibition (TsH1 [16]) was “Heavy Growth” and the Growth inhibition (TsH1 [17]) was “Heavy Growth”.
Compound CC(=O)NCC(N)C(=O)O (stereo not drawn) has an inhibition [18] of 0%.
